Legend:
TiRP tumor = assay: TiRP melanoma model with adoptive cell transfer of activated P1A-specific CD8+ T cells; type: in vivo, mouse; settings: alprenolol 5 mg/kg i.p. daily with ACT
Excerpt: TiRP mice: TiRP mice have been created by crossing Ink4a/Arf^flox/flox mice with mice carrying a transgenic construct controlled by the tyrosinase promoter and driving the expression of H-Ras^12V and Trap1a which encodes a MAGE-type tumor antigen P1A; the promoter is separated from the coding region by a stop cassette made of a floxed self-deleting CreER (Huijbers et al., 2006, Cancer Res 66, 3278-3286). Those mice were backcrossed to a B10.D2 background and bred to homozygosity. TCRP1A mice heterozygous for the H-2Ld/P1A35-43-specific TCR transgene were kept on the B10.D2; Rag1^−/− background (Shanker et al., 2004, J Immunol 172, 5069-5077). All mice used in this study were produced under specific pathogen free (SPF) conditions at the animal facility of the Ludwig Institute for Cancer Research. All the rules concerning animal welfare have been respected according to the 2010/63/EU Directive. All procedures were performed with the approval of the local Animal Ethical Committee, with reference 2015/UCL/MD/15.
A fresh solution of 40H-Tamoxifen was prepared by dissolving 40H-Tamoxifen (Imaginechem) in 100% ethanol and mineral oil (ratio 1:9) followed by 30-min sonication, and injected subcutaneously (2 mg/200 μL per mouse) in the neck area of gender-matched 7 weeks old TiRP mice. Tumor appearance was monitored daily and tumors were measured three times/week. Tumor volume (in mm^3) was calculated by the following formula: Volume=width^2×length/2. Tumor-bearing TiRP mice were randomized based on the tumor size when average volume was 400 mm^3, 500 mm^3 or 1000 mm^3 as indicated.
(§1) T cells were incubated with guanabenz (10, 20, or 40 μM) for 16 h to 24 h as indicated. Mice received a daily intra-peritoneal injection of guanabenz (5 mg/kg) or vehicle (PBS) from the day of randomization (and the day of ACT when applicable) until the day of sacrifice.
For the adoptive cell transfer (ACT), P1A-specific (TCRP1A) CD8^+ T cells were isolated from spleens and lymph nodes of TCRP1A mice as described hereinabove, and stimulated in vitro by co-culture with irradiated (10.000 rads) L1210-P1A-B7.1 cells (Gajewski et al., 1995, J Immunol 154, 5637-5648) at 1:2 ratio (0.5×10^5 CD8^+ T cells and 10^5 L1210-P1A-B7.1 cells per well in 48-well plates) in IMDM (GIBCO) containing 10% fetal bovine serum supplemented with L-arginine (0.55 mM, Merck), L-asparagine (0.24 mM, Merck), glutamine (1.5 mM, Merck), betamercaptoethanol (50 μM, Sigma), 50 UmL^−1 penicillin and […] (Life Technologies). Four days later, TCRP1A CD8^+ T cells were purified on a Lymphoprep gradient (StemCell) and 10^7 living cells were injected intravenously in 200 μL PBS in TiRP-tumor bearing mice on the day of randomization.
Mice received a daily intra-peritoneal injection of alprenolol (5 mg/kg) or vehicle (PBS) from the day of ACT until the day of sacrifice.
T cells were incubated with sunitinib (0.1, 0.3, 0.8, 2.5 or 4 μM) for 16 h as indicated. Mice received a daily dose of sunitinib (20 mg/kg) or vehicle (PBS) by oral gavage from the day of ACT until the day of sacrifice.

[1] = test system: Mouse TCRP1A CD8+ T cells; assay: CD107 cytotoxicity assay (degranulation assay), mouse T cells; type: cell-based; settings: alprenolol 5 μM or 20 μM, 16 hours, vs control (PBS); FIG. 11A
Procedure: Mouse TCRP1A CD8^+ T cells: P1A-specific (TCRP1A) CD8^+ T cells were isolated from spleens and lymph nodes of TCRP1A mice using anti-mouse CD8a (Ly-2) MicroBeads (Miltenyi Biotec).
CD107 cytotoxicity assay (Degranulation assay): TCRP1A CD8^+ T cells were plated at 50,000 cells per well in a 96 U plate with different concentrations of guanabenz and incubated at 37° C. overnight prior to their use in the assay on the next day. On the day of the assay, the culture supernatant was removed from the cells and the cells were washed once with complete medium to remove the drug. The target cells L1210-P1A-B7.1 were added to the wells at a ratio of 1:1. Control wells containing either only T cells or target cells were also included for each plate. CD107a-APC was added to each well at the same time as addition of the target cells. The plate was then incubated at 37° C. for 90 minutes. At the end of the incubation period the cells were harvested and washed once with PBS. They were stained with anti-mouse CD8-Bv421 antibody for 15 minutes. The cells were then washed and resuspended in PBS and analyzed using FACS Fortessa flow cytometer. Human CD8^+ T cell degranulation was evaluated in a similar way. To induce CD8^+ T cell degranulation, T2 cells loaded with synthetic WT1126-134 peptide (10^6 T2 cells were incubated for 1 hour in 200 μL Optimem medium with 100 μmol/L synthetic peptide at 37° C.) were used as target cells.
as §1
CD107 cytotoxicity assay (Degranulation assay): the assay was carried out as described hereinabove (see Example 1) with different 20 μM guanabenz or different concentrations of alprenolol or sunitinib, as indicated.
T cells were incubated with 20 μM guanabenz for 16 h as indicated.
T cells were incubated with alprenolol (5 or 20 μM) for 16 h as indicated. […]

Compound: C=CCc1ccccc1OCC(O)CNC(C)C (stereo not drawn) [alprenolol]
- tumor infiltration of CD8+ T cells (tetramer+ CD8+ T cells among total CD45+ cells) (TiRP tumor; 7 days after ACT, FIG. 11C): not increased
- tumor growth (TiRP tumor; day 0 to day 10, vs ACT alone, FIG. 11B): not significantly decreased
- T cell degranulation (FACS detection of CD107a) [1]: did no significantly increase

From patent US20210353749A1, “GUANABENZ AS AN ADJUVANT FOR IMMUNOTHERAPY” (UNIVERSITÉ CATHOLIQUE DE LOUVAIN, priority 2018, published 2021)
